Source: ChEMBL document CHEMBL1150506, “S-nitrosation of proteins by N-methyl-N-nitrosoanilines” (Bioorg Med Chem Lett, 1996)

What was measured:
[1] = (§1) Pseudo-first order rate constant for inhibition of thiol-dependent papain enzyme
[2] = target: T1, Papain (Carica papaya, UniProt P00784); experiment: as §1
T1 sequence (P00784 whole entry): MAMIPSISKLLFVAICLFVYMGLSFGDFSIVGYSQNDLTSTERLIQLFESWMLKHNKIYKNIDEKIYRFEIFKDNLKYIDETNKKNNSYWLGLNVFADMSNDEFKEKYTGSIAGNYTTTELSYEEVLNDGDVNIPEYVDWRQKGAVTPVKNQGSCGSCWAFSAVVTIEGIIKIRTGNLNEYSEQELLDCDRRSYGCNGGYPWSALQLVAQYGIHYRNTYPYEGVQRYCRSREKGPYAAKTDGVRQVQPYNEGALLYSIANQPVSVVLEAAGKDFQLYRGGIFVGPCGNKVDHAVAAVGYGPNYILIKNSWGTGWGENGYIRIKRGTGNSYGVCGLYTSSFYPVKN

SMILES	Ki [1] [min⁻¹]	pseudo-first-order inhibition rate constant [2] [min⁻¹]
CN(N=O)c1ccc(O)cc1	0.009	–
CN(N=O)c1ccc(Cl)cc1	–	0.017
CN(N=O)c1cccc(O)c1	–	0.036
CN(N=O)c1ccccc1	–	0.057
CN(N=O)c1ccccc1O	–	0.011
CN(C)c1ccc(N(C)N=O)cc1	0.243	–
CN(N=O)c1ccccc1[N+](=O)[O-]	–	0.026
CN(N=O)c1cc(O)ccc1O [DEPHOSTATIN]	0.328	–
